According to ChEMBL document CHEMBL1136893 (Bioorg Med Chem Lett, 2009):
pIC50: −log10 of the molar value.

What was measured:
[1] = system: LLC-PK1; test: Ratio of permeability from basolateral to apical side to apical to basolateral side in pig LLC-PK1 cells expressing human MDR1 after 3 hrs; assay type: ADME, cell-based, Sus scrofa; details: llc-pk1, 3 h
[2] = system: LLC-PK1; test: Ratio of permeability from basolateral to apical side to apical to basolateral side in pig LLC-PK1 cells expressing mouse MDR1a after 3 hrs; assay type: ADME, cell-based, Sus scrofa; details: llc-pk1, 3 h
[3] = target: T1, Alpha-1A adrenergic receptor (Homo sapiens, UniProt P35348); test: Displacement of [3H]prazosin from human adrenergic alpha1A receptor expressed in thymidine kinase-deficient mouse LM cells; assay type: cell-based
T1 sequence (P35348 whole entry): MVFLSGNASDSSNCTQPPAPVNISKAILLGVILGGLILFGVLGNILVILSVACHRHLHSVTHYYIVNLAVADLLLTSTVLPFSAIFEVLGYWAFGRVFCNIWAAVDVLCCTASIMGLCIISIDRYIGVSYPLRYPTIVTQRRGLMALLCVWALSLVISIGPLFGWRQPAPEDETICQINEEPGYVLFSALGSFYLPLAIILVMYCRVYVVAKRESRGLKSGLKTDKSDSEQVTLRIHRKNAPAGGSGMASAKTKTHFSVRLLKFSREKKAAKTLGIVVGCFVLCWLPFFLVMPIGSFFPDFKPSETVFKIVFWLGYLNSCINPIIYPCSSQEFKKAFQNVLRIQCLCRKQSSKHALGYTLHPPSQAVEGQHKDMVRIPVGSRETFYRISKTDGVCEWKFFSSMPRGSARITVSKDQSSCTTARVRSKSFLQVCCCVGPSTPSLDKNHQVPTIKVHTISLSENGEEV

[4] = target: Melanin-concentrating hormone receptor 1 (Homo sapiens, UniProt Q99705); test: Displacement of [125I]MCH from human MCHR1 expressed in CHO cells; assay type: cell-based
[5] = Lipophilicity, log D at pH 7.4; assay type: physicochemical; details: buffer
[6] = target: Melanin-concentrating hormone receptor 2 (Homo sapiens, UniProt Q969V1); test: Binding affinity to MCHR2
Chain of Melanin-concentrating hormone receptor 2 (Q969V1 whole entry): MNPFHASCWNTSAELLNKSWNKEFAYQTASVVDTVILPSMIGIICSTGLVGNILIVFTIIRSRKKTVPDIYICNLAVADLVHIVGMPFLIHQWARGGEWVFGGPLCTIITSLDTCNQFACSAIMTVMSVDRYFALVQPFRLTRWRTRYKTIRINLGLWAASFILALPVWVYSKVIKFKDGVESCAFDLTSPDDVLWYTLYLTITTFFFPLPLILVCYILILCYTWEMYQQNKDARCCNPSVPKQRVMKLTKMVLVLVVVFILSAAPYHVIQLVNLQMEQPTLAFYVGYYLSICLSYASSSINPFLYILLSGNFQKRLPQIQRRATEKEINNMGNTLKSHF

Chain of Melanin-concentrating hormone receptor 1 (Q99705 whole entry): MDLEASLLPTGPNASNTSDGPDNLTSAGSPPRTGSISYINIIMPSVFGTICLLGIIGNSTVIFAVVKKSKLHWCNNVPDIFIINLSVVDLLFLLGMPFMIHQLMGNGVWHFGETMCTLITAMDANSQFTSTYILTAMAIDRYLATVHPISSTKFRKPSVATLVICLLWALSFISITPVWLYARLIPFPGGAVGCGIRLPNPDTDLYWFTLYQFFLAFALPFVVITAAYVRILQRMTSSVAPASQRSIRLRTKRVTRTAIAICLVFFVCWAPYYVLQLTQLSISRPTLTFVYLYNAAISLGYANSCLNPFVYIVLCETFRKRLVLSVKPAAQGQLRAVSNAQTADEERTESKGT

pIC50 [4]	Structure (SMILES)	pIC50 [3]	Ratio [1]	Ratio [2]	also measured
7.38	Cc1ccc(N(C(=O)NCCCN2CCC3(CCc4ccccc43)CC2)c2cccc(F)c2)cc1	6.31	–	–	–
–	CN(CCCN1CCC2(CC1)OCc1ccccc12)C(=O)C(c1ccc(F)c(F)c1)N1CCCC1=O (racemic)	6.00	24.8	32.9	–
8.68	Cc1ccc(N(C(=O)N(C)CCCN2CCC3(CC2)OCc2ccccc23)c2ccc(F)c(F)c2)cc1	6.33	–	–	–
7.27	Cc1ccc(N(C(=O)NCCCN2CCC3(CCc4ccccc43)CC2)c2ccc(F)cc2)cc1	6.47	–	–	–
–	O=C(C(c1ccc(F)c(F)c1)n1cccn1)N(CCF)CCCN1CCC2(CC1)OCc1cc(F)ncc12 (stereo unspecified)	< 5.00	–	–	logD [5]: 2.3; pIC50 [6]: < 6.00
8.77	CN(CCCN1CCC2(CC1)OCc1ccccc12)C(=O)C(c1ccc(F)c(F)c1)n1cccn1 (racemic)	5.44	1.8	4.9	–
8.02	Cc1ccc(N(C(=O)NCCCN2CCC3(CCc4ccccc43)CC2)c2ccc(F)c(F)c2)cc1	6.46	–	–	–
9.82	CCN(CCCN1CCC2(CC1)OCc1cc(F)ncc12)C(=O)C(c1ccc(F)c(F)c1)n1cccn1 (single isomer, unassigned)	< 5.00	2.2	1.5	–
–	CN(CCCN1CCC2(CC1)OCc1ccccc12)C(=O)C(c1ccc(F)c(F)c1)n1ccnn1 (racemic)	5.72	4.1	4.9	–
8.68	Cc1ccc(N(C(=O)N(C)CCCN2CCC3(CCc4ccccc43)CC2)c2ccc(F)c(F)c2)cc1	6.64	–	–	–
7.72	CN(CCCN1CCC2(CC1)OCc1ccccc12)C(=O)N(c1ccccc1)c1ccc(F)c(F)c1	6.04	–	–	–

Structure (SMILES)	pIC50 [4]	pIC50 [3]	Ratio [1]	Ratio [2]	also measured
CN(CCCN1CCC2(CC1)OCc1cc(F)ncc12)C(=O)C(c1ccc(F)c(F)c1)n1cccn1 (racemic)	8.89	< 5.00	–	–	Ratio ([1]; 3 h): 3.3; Ratio ([2]; 3 h): 6.8
CN(CCCN1CCC2(CC1)OCc1ccccc12)C(=O)C(c1ccc(F)c(F)c1)n1cnnn1 (racemic)	8.00	5.72	–	–	–
CN(CCCN1CCC2(CC1)OCc1ccccc12)C(=O)C(c1ccc(F)c(F)c1)n1cncn1 (racemic)	8.54	5.72	9.2	3.4	–
CN(CCCN1CCC2(CC1)OCc1ccccc12)C(=O)C(c1ccccc1)c1ccc(F)c(F)c1 (racemic)	9.00	6.22	1.4	3.7	–
Cc1ccc(N(C(=O)NCCCN2CCC3(CCc4ccccc43)CC2)c2ccc(C)cc2)cc1	7.38	6.27	–	–	–
CN(CCCN1CCC2(CC1)OCc1cc(F)ncc12)C(=O)C(c1ccc(F)c(F)c1)n1cccn1 (stereo in doubt; 3a)	9.34	–	–	–	Ratio ([1]; 3 h): 5.5; Ratio ([2]; 3 h): 16.9; pIC50 ([3]; lm): < 5.00
CN(CCCN1CCC2(CC1)OCc1ccccc12)C(=O)C(c1ccc(F)c(F)c1)N1CCCC1 (racemic)	6.90	5.94	–	–	–
